Measured values as given in ChEMBL document CHEMBL1156104, “Synthesis and anticancer activity of novel amide derivatives of non-acetal deoxoartemisinin” (Bioorg Med Chem Lett, 2009).
pIC50: −log10 of the molar value.

Columns and labels:
A549 = experiment: Anticancer activity against human A549 cells by sulforhodamine B assay; type: functional, cell-based
HCT-15 = experiment: Anticancer activity against human HCT15 cells by sulforhodamine B assay; type: functional, cell-based
SK-MEL-2 = experiment: Anticancer activity against human SK-MEL-2 cells by sulforhodamine B assay; type: functional, cell-based
Mus musculus = species on record: Mus musculus; experiment: Antiangiogenic activity in mouse assessed as inhibition of VEGF-induced angiogenesis at 10 uM by Matrigel plug assay; type: functional
SK-OV-3 = experiment: Anticancer activity against human SKOV3 cells by sulforhodamine B assay; type: functional, cell-based
XF498 = experiment: Anticancer activity against human XF498 cells by sulforhodamine B assay; type: functional, cell-based

SMILES	pIC50 (A549)	pIC50 (HCT-15)	pIC50 (SK-MEL-2)	inhibition (INH) (Mus musculus)	pIC50 (SK-OV-3)	pIC50 (XF498)
C[C@@H]1CC[C@H]2[C@H](CBr)CO[C@@H]3O[C@]4(C)CC[C@@H]1[C@]32OO4	4.95	4.95	4.85	95%	4.81	4.79
COC(=O)[C@@H](CS)N(Cc1ccccc1)C(=O)CC[C@H]1O[C@@H]2O[C@]3(C)CC[C@H]4[C@H](C)CCC([C@H]1C)[C@@]24OO3 (stereo not given in full)	5.51	5.81	5.50	–	5.63	5.58
C[C@@H]1CCC2[C@@H](C)[C@@H](CCC(=O)N3CCC(Cc4ccccc4)CC3)O[C@@H]3O[C@]4(C)CC[C@@H]1[C@@]23OO4 (stereo not given in full)	5.87	5.84	5.90	–	5.78	5.71
C[C@@H]1CCC2[C@@H](C)[C@@H](CCNC(=O)CC[C@H](NC(=O)CC[C@H]3O[C@@H]4O[C@]5(C)CC[C@H]6[C@H](C)CCC([C@H]3C)[C@@]46OO5)C(=O)NCC[C@H]3O[C@@H]4O[C@]5(C)CC[C@H]6[C@H](C)CCC([C@H]3C)[C@@]46OO5)O[C@@H]3O[C@]4(C)CC[C@@H]1[C@@]23OO4 (stereo not given in full)	4.87	4.70	4.74	80%	4.91	4.94
C[C@@H]1CCC2[C@@H](C)[C@@H](CCNC(=O)CC[C@H]3O[C@@H]4O[C@]5(C)CC[C@H]6[C@H](C)CCC([C@H]3C)[C@@]46OO5)O[C@@H]3O[C@]4(C)CC[C@@H]1[C@@]23OO4 (stereo not given in full)	5.12	5.11	5.00	–	5.36	5.24
C[C@H]1[C@@H](CCSCC[C@H]2O[C@@H]3O[C@]4(C)CC[C@H]5[C@H](C)CCC([C@H]2C)[C@@]35OO4)O[C@@H]2O[C@]3(C)CCC4[C@H](C)CC[C@@H]1[C@]42OO3 (stereo not given in full)	5.25	5.45	5.12	–	5.31	5.26
C[C@@H]1CCC2[C@@H](C)[C@@H](CCC(=O)NCCCN3CCN(CCCNC(=O)CC[C@H]4O[C@@H]5O[C@]6(C)CC[C@H]7[C@H](C)CCC([C@H]4C)[C@@]57OO6)CC3)O[C@@H]3O[C@]4(C)CC[C@@H]1[C@@]23OO4 (stereo not given in full)	6.07	6.08	6.35	–	6.20	6.34
C[C@@H]1CCC2[C@@H](C)[C@@H](CCC(=O)NCc3ccccc3)O[C@@H]3O[C@]4(C)CC[C@@H]1[C@@]23OO4 (stereo not given in full)	5.29	5.21	5.08	–	5.32	5.46
CO[C@H]1O[C@@H]2O[C@@]3(C)CC[C@H]4[C@H](C)CC[C@@H]([C@H]1C)[C@@]24OO3 [ARTEMETHER]	5.07	5.02	5.14	–	5.10	5.04
C[C@@H]1CC[C@H]2[C@@H](C)C(=O)O[C@@H]3O[C@@]4(C)CC[C@@H]1[C@]32OO4 [ARTEMISININ]	4.82	4.76	4.89	–	4.84	4.79
C[C@H]1[C@@H](O)O[C@@H]2O[C@@]3(C)CC[C@H]4[C@H](C)CC[C@@H]1[C@@]24OO3 [ARTENIMOL]	6.20	6.34	6.12	–	6.07	6.27
COc1cccc2c1C(=O)c1c(O)c3c(c(O)c1C2=O)C[C@@](O)(C(=O)CO)C[C@@H]3O[C@H]1C[C@H](N)[C@H](O)[C@H](C)O1 [DOXORUBICIN]	7.12	–	7.55	–	7.34	–
